Read-outs that look alike come from different tables or passages of the source.
Columns and labels:
[1] = In vitro stability of Compound 1 in dog plasma; format: in vitro ADME; details: for Concentration of Compound 1 in plasma: 1000 ng/mL added; for half-life at 1000 ng/mL: dog, pooled dog plasma
Procedure: (§1) The active metabolite of Compound 1 (Cyclopropanecarboxylic acid 1-hydroxy-2,2,6,6-tetramethyl-piperidin-4-yl ester) is TPH. The objective of this analysis was to determine the in vitro half-life of Compound 1 in rat, rabbit, dog, and human plasma under standardized incubation conditions.
(§2) Compound 1 was incubated with pooled rat, rabbit, dog, and human plasma for various times under standardized incubation conditions. Pre-labeled tubes containing pooled plasma from rats, rabbits, dogs, and humans were pre-incubated in a shaking 37° C. water bath. A Compound 1 solution was added to the tubes at a final concentration of 1000 ng/mL. Time zero samples (n=5) were immediately removed and transferred into tubes containing a stabilizer solution (DTPA, acetylcysteine and ascorbic acid), the LC/MS/MS assay internal standard and methanol. […] The tubes were vortexed, placed on ice, followed by centrifugation. One hundred-μL aliquots of the supernatant were transferred into HPLC sample vials. Additional tubes (n=5 at each time point) were incubated for 5, 10, 20, 30, 60, 120, and 240 minutes at 37° C. and thereafter processed. The amount of Compound 1 and TPH in each incubated sample was quantified using validated LC/MS/MS assays.

[2] = Single-dose 10-minute intravenous infusion toxicokinetics in Sprague-Dawley rats; format: in vivo; details: for Cmax: in vivo, read-out: Cmax of Compound 1; for Cmax / Tmax: 10-minute iv infusion; for concentration at 0.167 hr: 0.167 hr from start of infusion; for Tmax: read-out: Tmax of Compound 1
Procedure: Blood for toxicokinetic evaluations was collected at pre-determined time points during and after the infusion.
All pharmacokinetic analyses were performed using Kinetica®, version 4.2 (Innaphase, Philadelphia, Pa.).
Cmax is the observed maximum plasma concentration
Tmax is the time Cmax is reached
T1/2 is the elimination half-life
The plasma concentrations were rounded to the nearest tenth of a ng/mL before the calculations. […] Nominal time points were used for all calculations.

[3] = In vitro stability of Compound 1 in rat plasma; format: in vitro ADME; details: for Concentration of Compound 1 in plasma: 1000 ng/mL added; for half-life at 1000 ng/mL: rat, pooled rat plasma
Procedure: as §1, §2

[4] = In vitro stability of Compound 1 in rabbit plasma; format: in vitro ADME; details: for Concentration of Compound 1 in plasma: 1000 ng/mL added; for half-life at 1000 ng/mL: rabbit, pooled rabbit plasma
Procedure: as §1, §2

[5] = In vitro stability of Compound 1 in human plasma; format: in vitro ADME; details: for Concentration of Compound 1 in plasma: 1000 ng/mL added; for half-life at 1000 ng/mL: human, pooled human plasma
Procedure: as §1, §2

[6] = average, read-out: in vitro half-life

In the case of `CC1(C)CC(OC(=O)C2CC2)CC(C)(C)N1O.Cl` [Compound 1, 1-hydroxy-4-cyclopropanecarbonyloxy-2,2,6,6-tetramethylpiperidine hydrochloride], the “Concentration of Compound 1 in plasma” value ([1]; 37° C., incubation 0 min) is reported as 771.12 ± 21.68 ng/mL, the “Concentration of Compound 1 in plasma” value ([1]; 37° C., incubation 5 min) is reported as 804.93 ± 17.45 ng/mL and the “Concentration of Compound 1 in plasma” value ([1]; 37° C., incubation 10 min) is reported as 811.14 ± 21.06 ng/mL. For the same compound, the “Concentration of Compound 1 in plasma” value ([1]; 37° C., incubation 20 min) was 809.01 ± 18.58 ng/mL, the “Concentration of Compound 1 in plasma” value ([1]; 37° C., incubation 30 min) was 789.53 ± 13.73 ng/mL and the “Concentration of Compound 1 in plasma” value ([1]; 37° C., incubation 60 min) was 717.22 ± 25.73 ng/mL. For the same compound, the “Concentration of Compound 1 in plasma” value ([1]; 37° C., incubation 120 min) was 608.14 ± 25.96 ng/mL, the “Concentration of Compound 1 in plasma” value ([1]; 37° C., incubation 240 min) was 428.20 ± 12.03 ng/mL and the half-life at 1000 ng/mL ([1]; average, read-out: in vitro half-life (converted)) was 240 min. The half-life at 1000 ng/mL ([1]; in vitro, 37° C., read-out: T½) was 240 min, the “plasma level of Compound 1 at one hour after termination of the infusion” value ([2]; 10 mg/kg) was “not quantifiable” and the Cmax ([2]; both sexes, Sprague-Dawley, rat, 10 mg/kg) was 980 ng/mL. The Cmax ([2]; both sexes, Sprague-Dawley, rat, 30 mg/kg) was 3490 ng/mL, the Cmax ([2]; both sexes, Sprague-Dawley, rat, 100 mg/kg) was 29000 ng/mL and the Cmax ([2]; both sexes, Sprague-Dawley, rat, 200 mg/kg) was 89700 ng/mL. It also gave a concentration at 0.167 hr ([2]; both sexes, Sprague-Dawley, rat, plasma, 10 mg/kg iv infusion, read-out: Plasma concentration of Compound 1) of 980 ± 311 ng/mL, a concentration at 1.167 hr ([2]; both sexes, Sprague-Dawley, rat, plasma, 10 mg/kg iv infusion, 1.167 hr, below 50 ng/mL assigned zero, read-out: Plasma concentration of Compound 1) of 0 ng/mL and a concentration at 2.167 hr ([2]; both sexes, Sprague-Dawley, rat, plasma, 10 mg/kg iv infusion, 2.167 hr, below 50 ng/mL assigned zero, read-out: Plasma concentration of Compound 1) of 0 ng/mL. For the same compound, the concentration at 4.167 hr ([2]; both sexes, Sprague-Dawley, rat, plasma, 10 mg/kg iv infusion, below 50 ng/mL assigned zero, read-out: Plasma concentration of Compound 1) was 0 ng/mL, the Tmax ([2]; both sexes, Sprague-Dawley, rat, plasma, 10 mg/kg) was 10 min and the concentration at 0.167 hr ([2]; both sexes, Sprague-Dawley, rat, plasma, 30 mg/kg iv infusion, read-out: Plasma concentration of Compound 1) was 3490 ± 809 ng/mL. For the same compound, the concentration at 4.167 hr ([2]; both sexes, Sprague-Dawley, rat, plasma, 30 mg/kg iv infusion, below 50 ng/mL assigned zero, read-out: Plasma concentration of Compound 1) was 0 ng/mL, the Tmax ([2]; both sexes, Sprague-Dawley, rat, plasma, 30 mg/kg) was 10 min and the concentration at 0.167 hr ([2]; both sexes, Sprague-Dawley, rat, plasma, 100 mg/kg iv infusion, read-out: Plasma concentration of Compound 1) was 29000 ± 15100 ng/mL. It also gave a concentration at 4.167 hr ([2]; both sexes, Sprague-Dawley, rat, plasma, 100 mg/kg iv infusion, below 50 ng/mL assigned zero, read-out: Plasma concentration of Compound 1) of 0 ng/mL, a Tmax ([2]; both sexes, Sprague-Dawley, rat, plasma, 100 mg/kg) of 10 min and a concentration at 0.167 hr ([2]; both sexes, Sprague-Dawley, rat, plasma, 200 mg/kg iv infusion, read-out: Plasma concentration of Compound 1) of 89700 ± 18100 ng/mL. For the same compound, the concentration at 4.167 hr ([2]; both sexes, Sprague-Dawley, rat, plasma, 200 mg/kg iv infusion, below 50 ng/mL assigned zero, read-out: Plasma concentration of Compound 1) was 0 ng/mL, the Tmax ([2]; both sexes, Sprague-Dawley, rat, plasma, 200 mg/kg) was 10 min and the “clearance of Compound 1 in rats” value ([2]; suggested by the results, half-life not determinable) was “very rapid”. For the same compound, the “plasma levels of Compound 1 at four hours after termination of the infusion” value ([2]; three higher dosages of 30 to 200 mg/kg) was “not quantifiable”, the “Concentration of Compound 1 in plasma” value ([3]; 37° C., incubation 0 min) was 806.50 ± 86.77 ng/mL and the “Concentration of Compound 1 in plasma” value ([3]; 37° C., incubation 5 min) was 770.32 ± 20.66 ng/mL. The “Concentration of Compound 1 in plasma” value ([3]; 37° C., incubation 10 min) was 745.77 ± 15.50 ng/mL, the “Concentration of Compound 1 in plasma” value ([3]; 37° C., incubation 20 min) was 682.88 ± 16.94 ng/mL and the “Concentration of Compound 1 in plasma” value ([3]; 37° C., incubation 30 min) was 613.79 ± 25.84 ng/mL. The “Concentration of Compound 1 in plasma” value ([3]; 37° C., incubation 60 min) was 480.48 ± 10.69 ng/mL, the “Concentration of Compound 1 in plasma” value ([3]; 37° C., incubation 120 min) was 277.94 ± 5.55 ng/mL and the “Concentration of Compound 1 in plasma” value ([3]; 37° C., incubation 240 min) was 80.70 ± 2.02 ng/mL. The half-life at 1000 ng/mL [3, 6] was 70 min, the half-life at 1000 ng/mL ([3]; in vitro, 37° C., read-out: T½) was 69.5 min and the “Concentration of Compound 1 in plasma” value ([4]; 37° C., incubation 0 min) was 502.75 ± 74.66 ng/mL. For the same compound, the “Concentration of Compound 1 in plasma” value ([4]; 37° C., incubation 5 min) was 14.56 ± 3.35 ng/mL, the “Concentration of Compound 1 in plasma” value ([4]; 37° C., incubation 10 min) was 0.00 ± 0.00 ng/mL and the “Concentration of Compound 1 in plasma” value ([4]; 37° C., incubation 20 min) was 0.00 ± 0.00 ng/mL. For the same compound, the “Concentration of Compound 1 in plasma” value ([4]; 37° C., incubation 30 min) was 0.00 ± 0.00 ng/mL, the “Concentration of Compound 1 in plasma” value ([4]; 37° C., incubation 60 min) was 0.00 ± 0.00 ng/mL and the “Concentration of Compound 1 in plasma” value ([4]; 37° C., incubation 120 min) was 0.00 ± 0.00 ng/mL. The “Concentration of Compound 1 in plasma” value ([4]; 37° C., incubation 240 min) was 0.00 ± 0.00 ng/mL, the half-life at 1000 ng/mL [4, 6] was 1 min and the half-life at 1000 ng/mL ([4]; in vitro, 37° C., read-out: T½) was 0.98 min. For the same compound, the “Concentration of Compound 1 in plasma” value ([5]; 37° C., incubation 0 min) was 775.47 ± 22.50 ng/mL, the “Concentration of Compound 1 in plasma” value ([5]; 37° C., incubation 5 min) was 593.43 ± 7.55 ng/mL and the “Concentration of Compound 1 in plasma” value ([5]; 37° C., incubation 10 min) was 503.18 ± 20.90 ng/mL. The “Concentration of Compound 1 in plasma” value ([5]; 37° C., incubation 20 min) was 394.69 ± 6.72 ng/mL, the “Concentration of Compound 1 in plasma” value ([5]; 37° C., incubation 30 min) was 316.37 ± 7.67 ng/mL and the “Concentration of Compound 1 in plasma” value ([5]; 37° C., incubation 60 min) was 162.41 ± 9.77 ng/mL. The “Concentration of Compound 1 in plasma” value ([5]; 37° C., incubation 120 min) was 32.22 ± 2.63 ng/mL, the “Concentration of Compound 1 in plasma” value ([5]; 37° C., incubation 240 min) was 0.00 ± 0.00 ng/mL and the half-life at 1000 ng/mL [5, 6] was 28 min. For the same compound, the half-life at 1000 ng/mL ([5]; in vitro, 37° C., read-out: T½) was 27.8 min.

Reference: US20070197599A1, “HYDROXYLAMINES AND DERIVATIVES AS ANTI-ANGIOGENIC AGENTS” (priority 2006, published 2007)
